Data as given in article PMC10851555, “Safinamide, an inhibitor of monoamine oxidase, modulates the magnitude, gating, and hysteresis of sodium ion current” (BMC Pharmacology & Toxicology, 2024).
Values joined by “and” are separate entries in the source; they are usually repeats but may differ in a detail not shown here. Equal entries are not always repeated. Where two headings read alike, the source gives them in different places.

Legend:
[1] = design: method as in PMID 15082032; details: cited from earlier work
[2] = system: voltage-gated sodium ion (NaV) channels in pituitary GH3 cells; assay: Whole-cell patch-clamp of INa induced by a 30-ms depolarizing pulse (−100 to −10 mV) in GH3 cells; assay type: cell-based, rat; details: for amplitude of INa(L) / amplitude of INa(T): 1 min after addition; for amplitude of INa(L): control 18 ± 3 pA; for amplitude of INa(T): control 512 ± 23 pA; for EC50: GH3 cells, modified Hill equation
[3] = system: voltage-gated sodium ion (NaV) channels in pituitary GH3 cells; assay: Whole-cell INa(T) decay during a 1-s, 20-Hz train of depolarizing pulses in GH3 cells; assay type: cell-based, rat; details: control 65 ± 4 ms, n = 7
Experimental: Shortly before experiments, GH3 was carefully suspended in normal Tyrode’s solution at room temperature (20–25 °C). A few drops of the suspension containing cell clumps were immediately added to a custom-built chamber on the stage of an inverted Diaphot-200 microscope (Nikon, Tokyo, Japan). Pipettes were pulled from Kimax-51 soft-glass capillaries (#34500-99; Kimble, Vineland, NJ) by using a Narishige PP-830 Vertical Puller (Tokyo, Japan), and their tips were fire-polished using a microforge (MF-83, Narishige). During the measurements, an electrode with a tip resistance of 2–4 MΩ, which was tightly inserted into a holder, was maneuvered using a WR-98 micromanipulator (Narishige). Patch-clamp experiments were performed in the voltage-clamp mode with either cell-attached or whole-cell configuration (rupturing of the membrane patch after GΩ formation) by using a RK-400 Patch-Clamp Amplifier (Bio-Logic, Claix, France) connected to a laptop. Shortly before GΩ formation, potential correction was performed for a liquid junction potential, which developed at the electrode’s tip because of the difference in the compositions of the internal and bath solutions.
SAF is efficacious as an add-on therapy following subthalamic nucleus deep brain stimulation in patients with Parkinson’s disease. Therefore, we investigated whether SAF could modify the inactivation of currents induced by a train of depolarizing stimuli. The test cells were maintained at −80 mV and subjected to repetitive depolarization to −10 mV (40 ms per pulse; rate of 20 Hz; duration of 1 s). Similar to the findings of relevant studies, during the control period (the absence of SAF), INa(T) inactivation was noticed to be induced by 1 s of repetitive depolarization stimuli (−80 to −10 mV) with a decaying time constant of 65 ± 4 ms (n = 7; Fig. 6A, 6B and 6C). […] In the presence of 3 and 10 μM SAF, the exponential time course of INa(T) induced by the same train of depolarizing pulses was longer at 107 ± 5 ms (n = 7, P < 0.05) and 124 ± 6 ms (n = 7, P < 0.05), respectively. Furthermore, as MGB and ranolazine have been reported to suppress the amplitude of INa effectively, we added ranolazine (Ran; 10 μM) and mirogabalin (MGB; 10 μM) separately in the presence of 10 μM SAF. […] The application of Ran (10 μM) or MGB (10 μM) alone decreased the decaying time constant of INa(T) during the same train of depolarizing pulses to 39 ± 4 ms (n = 7, P < 0.05) or 42 ± 4 ms (n = 7, P < 0.05), respectively, from a control value of 66 ± 5 ms (n = 7). Thus, in addition to increasing the magnitude of INa(T), SAF prominently affects the decaying of INa(T) subjected to a 1-s train of depolarizing pulses.
Fig. 6 Effect of SAF on INa(T) decay induced by a train of depolarizing pulses in GH3 cells. The train of pulses comprised twenty 40-ms pulses (voltage increased to −10 mV) with 10-ms intervals at −80 mV for a total duration of 1 s. (A) Current traces during the control period (a, blue) and during exposure to 10 μM SAF (b, red). The voltage-clamp protocol used is indicated atop the current traces. In panel A, the third graphs (blue and red) from the top are the expanded forms of the second graphs (brown dashed boxes). (B) The relative amplitude of INa(T) versus pulse train duration in the absence (blue open circles) and presence (red open squares) of 10 μM SAF (mean ± standard error of the mean; n = 7 for each point). The INa(T) amplitudes were normalized by dividing the current amplitudes at the end of each pulse-train stimulation by those obtained at the beginning of the pulse train stimulation. The gray continuous lines on which the data points are overlaid are reliably fitted with a single exponential.

In the case of C[C@H](NCc1ccc(OCc2cccc(F)c2)cc1)C(N)=O [SAF, (S)-2-((4-((3-fluorobenzyl)oxy)benzyl)amino)propanamide], the maximal plasma concentration ([1]; single 2.5 mg/kg dose, 2.5 mg/kg) is given as “approximately 1000 ng/mL and ~3.3 μM”, the maximal plasma concentration ([1]; single 5.0 mg/kg dose, 5 mg/kg) is given as ~2500 ng/mL and ~8.3 μM and the maximal plasma concentration ([1]; single 10.0 mg/kg dose, 10 mg/kg) is given as ~5500 ng/mL and ~18.2 μM. For the same molecule, the “amplitude of INa(L)” value ([2]; 10 μM SAF, n = 8) was 54 ± 9 pA, the “amplitude of INa(T)” value ([2]; 10 μM SAF, n = 8) was 1387 ± 131 pA and the “time constant of the fast component of INa(T) inactivation” value ([2]; 30 μM SAF) was “no evident change”. The “amplitude of INa(L)” value ([2]; 30 μM SAF, n = 8) was 106 ± 17 pA, the “amplitude of INa(T)” value ([2]; 30 μM SAF, n = 8) was 1991 ± 153 pA and the “time constant τinact(S), slow component of INa(T) inactivation” value ([2]; 30 μM SAF, control 5.1 ± 0.7 ms, n = 8) was 10.2 ± 1.1 ms. The “maximal conductance of INa” value ([2]; 10 mM SAF (so in the source)) was “increased”, the “sloping factor of the steady-state inactivation curve” value ([2]; 10 mM SAF (so in the source)) was “no change” and the “shift of steady-state inactivation curve of INa to the rightward direction” value ([2]; 10 mM SAF (so in the source), two-step voltage-clamp protocol, n = 7) was “approximately 14 mV”. The “half-maximal activation voltage of INa(T) (G–V relationship)” value ([2]; 3 or 10 μM SAF) was “shifted to more negative potentials”, the EC50 ([2]; current at beginning of 30-ms pulse −100 to −10 mV, read-out: EC50 for stimulation of transient INa [INa(T)]) was 27.1 µM and the EC50 ([2]; current at end of 30-ms pulse −100 to −10 mV, read-out: EC50 for stimulation of late INa [INa(L)]) was 4.8 µM. For the same molecule, the “amplitude of INa(L) after the removal of SAF” value ([2]; washout, n = 8) was 20 ± 3 pA, the “amplitude of INa(T) after the removal of SAF” value ([2]; washout, n = 8) was 523 ± 24 pA and the “decaying time constant of INa(T) during train of depolarizing pulses” value ([3]; 3 μM SAF) was 107 ± 5 ms. The “decaying time constant of INa(T) during train of depolarizing pulses” value ([3]; 10 μM SAF) was 124 ± 6 ms.
